This is an account of results in patent US20140343000A1 (priority 2011, published 2014).

Some results are limits rather than exact numbers.

For the first experiment, the system named is recombinant NL4-3 virus (Renilla luciferase in nef, Gag P373S; NLRluc) in MT-2 cells. Description: whole plant or invertebrate. The experiment is classed as cell-based, HIV. The conditions noted are these: Renilla, NL43, luciferase activity in cells infected for 4-5 days with NLRluc recombinants, serial dilutions of inhibitor; class symbols (key in Table 1); read-out: EC50. The procedure, abridged:
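Cells grown in serum-supplemented RPMI were exposed to graded inhibitor concentrations during a 4-5 day infection. Antiviral effect was then derived from luminescence after adding a combined lysis and dual-luciferase substrate mixture to each well.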
One may read the EC50 as the concentration at which the effect is half-maximal. Regarding `C=C(C)[C@@H]1CC[C@]2(NC(=O)N3CCN(C(C)=O)CC3)CC[C@]3(C)[C@H](CC[C@@H]4[C@@]5(C)CC=C(c6ccc(C(=O)O)cc6)C(C)(C)[C@@H]5CC[C@]43C)[C@@H]12` [Example 41, 4-((1R,3aS,5aR,5bR,7aR,11aS,11bR,13aR,13bR)-3a-(4-acetylpiperazine-1-carboxamido)-5a,5b,8,8,11a-pentamethyl-1-(prop-1-en-2-yl)-2,3,3a,4,5,5a,5b,6,7,7a,8,11,11a,11b,12,13,13a,13b-octadecahydro-1H-cyclopenta[a]chrysen-9-yl)benzoic acid], the concentration for a half-maximal effect (EC50) was less than 100 nM.

Turning to `C=C(C)[C@@H]1CC[C@]2(NC(=O)N3CCNC(=O)CC3)CC[C@]3(C)[C@H](CC[C@@H]4[C@@]5(C)CC=C(c6ccc(C(=O)O)cc6)C(C)(C)[C@@H]5CC[C@]43C)[C@@H]12` [Example 42, 4-((1R,3aS,5aR,5bR,7aR,11aS,11bR,13aR,13bR)-5a,5b,8,8,11a-pentamethyl-3a-(5-oxo-1,4-diazepane-1-carboxamido)-1-(prop-1-en-2-yl)-2,3,3a,4,5,5a,5b,6,7,7a,8,11,11a,11b,12,13,13a,13b-octadecahydro-1H-cyclopenta[a]chrysen-9-yl)benzoic acid], the EC50 was less than 100 nM.

For `C=C(C)[C@@H]1CC[C@]2(NC(=O)N(C)CCN3CCCC3)CC[C@]3(C)[C@H](CC[C@@H]4[C@@]5(C)CC=C(c6ccc(C(=O)O)cc6)C(C)(C)[C@@H]5CC[C@]43C)[C@@H]12` [Example 44, 4-((1R,3aS,5aR,5bR,7aR,11aS,11bR,13aR,13bR)-5a,5b,8,8,11a-pentamethyl-3a-(3-methyl-3-(2-(pyrrolidin-1-yl)ethyl)ureido)-1-(prop-1-en-2-yl)-2,3,3a,4,5,5a,5b,6,7,7a,8,11,11a,11b,12,13,13a,13b-octadecahydro-1H-cyclopenta[a]chrysen-9-yl)benzoic acid], the EC50 was less than 100 nM.

For `C=C(C)[C@@H]1CC[C@]2(NC(=O)N3CCNCC3)CC[C@]3(C)[C@H](CC[C@@H]4[C@@]5(C)CC=C(c6ccc(C(=O)O)cc6)C(C)(C)[C@@H]5CC[C@]43C)[C@@H]12` [Example 45, 4-((1R,3aS,5aR,5bR,7aR,11aS,11bR,13aR,13bR)-5a,5b,8,8,11a-pentamethyl-3a-(piperazine-1-carboxamido)-1-(prop-1-en-2-yl)-2,3,3a,4,5,5a,5b,6,7,7a,8,11,11a,11b,12,13,13a,13b-octadecahydro-1H-cyclopenta[a]chrysen-9-yl)benzoic acid], the EC50 is less than 100 nM.

With `C=C(C)[C@@H]1CC[C@]2(NC(=O)N(C)CCCN(C)C)CC[C@]3(C)[C@H](CC[C@@H]4[C@@]5(C)CC=C(c6ccc(C(=O)O)cc6)C(C)(C)[C@@H]5CC[C@]43C)[C@@H]12` [Example 46, 4-((1R,3aS,5aR,5bR,7aR,11aS,11bR,13aR,13bR)-3a-(3-(3-(dimethylamino)propyl)-3-methylureido)-5a,5b,8,8,11a-pentamethyl-1-(prop-1-en-2-yl)-2,3,3a,4,5,5a,5b,6,7,7a,8,11,11a,11b,12,13,13a,13b-octadecahydro-1H-cyclopenta[a]chrysen-9-yl)benzoic acid], the EC50 was less than 100 nM.

With `C=C(C)[C@@H]1CC[C@]2(NC(=O)NCCNS(C)(=O)=O)CC[C@]3(C)[C@H](CC[C@@H]4[C@@]5(C)CC=C(c6ccc(C(=O)O)cc6)C(C)(C)[C@@H]5CC[C@]43C)[C@@H]12` [Example 47, 4-((1R,3aS,5aR,5bR,7aR,11aS,11bR,13aR,13bR)-5a,5b,8,8,11a-pentamethyl-3a-(3-(2-(methylsulfonamido)ethyl)ureido)-1-(prop-1-en-2-yl)-2,3,3a,4,5,5a,5b,6,7,7a,8,11,11a,11b,12,13,13a,13b-octadecahydro-1H-cyclopenta[a]chrysen-9-yl)benzoic acid], the EC50 is less than 100 nM.

Turning to `C=C(C)[C@@H]1CC[C@]2(NC(=O)N(C)CCn3ccc4ccccc43)CC[C@]3(C)[C@H](CC[C@@H]4[C@@]5(C)CC=C(c6ccc(C(=O)O)cc6)C(C)(C)[C@@H]5CC[C@]43C)[C@@H]12` [Example 48, 4-((1R,3aS,5aR,5bR,7aR,11aS,11bR,13aR,13bR)-3a-(3-(2-(1H-indol-1-yl)ethyl)-3-methylureido)-5a,5b,8,8,11a-pentamethyl-1-(prop-1-en-2-yl)-2,3,3a,4,5,5a,5b,6,7,7a,8,11,11a,11b,12,13,13a,13b-octadecahydro-1H-cyclopenta[a]chrysen-9-yl)benzoic acid], the EC50 was less than 100 nM.

As to `C=C(C)[C@@H]1CC[C@]2(NC(=O)NCCCN(C)S(C)(=O)=O)CC[C@]3(C)[C@H](CC[C@@H]4[C@@]5(C)CC=C(c6ccc(C(=O)O)cc6)C(C)(C)[C@@H]5CC[C@]43C)[C@@H]12` [Example 49, 4-((1R,3aS,5aR,5bR,7aR,11aS,11bR,13aR,13bR)-5a,5b,8,8,11a-pentamethyl-3a-(3-(3-(N-methylmethylsulfonamido)propyl)ureido)-1-(prop-1-en-2-yl)-2,3,3a,4,5,5a,5b,6,7,7a,8,11,11a,11b,12,13,13a,13b-octadecahydro-1H-cyclopenta[a]chrysen-9-yl)benzoic acid], the EC50 is less than 100 nM.

Take `C=C(C)[C@@H]1CC[C@]2(NC(=O)NCCN(C)S(C)(=O)=O)CC[C@]3(C)[C@H](CC[C@@H]4[C@@]5(C)CC=C(c6ccc(C(=O)O)cc6)C(C)(C)[C@@H]5CC[C@]43C)[C@@H]12` [Example 50, 4-((1R,3aS,5aR,5bR,7aR,11aS,11bR,13aR,13bR)-5a,5b,8,8,11a-pentamethyl-3a-(3-(2-(N-methylmethylsulfonamido)ethyl)ureido)-1-(prop-1-en-2-yl)-2,3,3a,4,5,5a,5b,6,7,7a,8,11,11a,11b,12,13,13a,13b-octadecahydro-1H-cyclopenta[a]chrysen-9-yl)benzoic acid]: the EC50 was less than 100 nM.

Take `C=C(C)[C@@H]1CC[C@]2(NC(=O)N3CCCN(CCO)CC3)CC[C@]3(C)[C@H](CC[C@@H]4[C@@]5(C)CC=C(c6ccc(C(=O)O)cc6)C(C)(C)[C@@H]5CC[C@]43C)[C@@H]12` [Example 51, 4-((1R,3aS,5aR,5bR,7aR,11aS,11bR,13aR,13bR)-3a-(4-(2-hydroxyethyl)-1,4-diazepane-1-carboxamido)-5a,5b,8,8,11a-pentamethyl-1-(prop-1-en-2-yl)-2,3,3a,4,5,5a,5b,6,7,7a,8,11,11a,11b,12,13,13a,13b-octadecahydro-1H-cyclopenta[a]chrysen-9-yl)benzoic acid]: the EC50 is less than 100 nM.

In the case of `C=C(C)[C@@H]1CC[C@]2(NC(=O)N(CCO)CCN(C)C)CC[C@]3(C)[C@H](CC[C@@H]4[C@@]5(C)CC=C(c6ccc(C(=O)O)cc6)C(C)(C)[C@@H]5CC[C@]43C)[C@@H]12` [Example 52, 4-((1R,3aS,5aR,5bR,7aR,11aS,11bR,13aR,13bR)-3a-(3-(2-(dimethylamino)ethyl)-3-(2-hydroxyethyl)ureido)-5a,5b,8,8,11a-pentamethyl-1-(prop-1-en-2-yl)-2,3,3a,4,5,5a,5b,6,7,7a,8,11,11a,11b,12,13,13a,13b-octadecahydro-1H-cyclopenta[a]chrysen-9-yl)benzoic acid], the EC50 is less than 100 nM.

Regarding `C=C(C)[C@@H]1CC[C@]2(NC(=O)N(CCN3CCOCC3)CC(=O)O)CC[C@]3(C)[C@H](CC[C@@H]4[C@@]5(C)CC=C(c6ccc(C(=O)O)cc6)C(C)(C)[C@@H]5CC[C@]43C)[C@@H]12` [Example 53, 4-((1R,3aS,5aR,5bR,7aR,11aS,11bR,13aR,13bR)-3a-(3-(carboxymethyl)-3-(2-morpholinoethyl)ureido)-5a,5b,8,8,11a-pentamethyl-1-(prop-1-en-2-yl)-2,3,3a,4,5,5a,5b,6,7,7a,8,11,11a,11b,12,13,13a,13b-octadecahydro-1H-cyclopenta[a]chrysen-9-yl)benzoic acid], the EC50 was less than 100 nM.

Consider `C=C(C)[C@@H]1CC[C@]2(NC(=O)N3CCN(C)CC3)CC[C@]3(C)[C@H](CC[C@@H]4[C@@]5(C)CC=C(c6ccc(C(=O)O)cc6)C(C)(C)[C@@H]5CC[C@]43C)[C@@H]12` [Example 54, 4-((1R,3aS,5aR,5bR,7aR,11aS,11bR,13aR,13bR)-5a,5b,8,8,11a-pentamethyl-3a-(4-methylpiperazine-1-carboxamido)-1-(prop-1-en-2-yl)-2,3,3a,4,5,5a,5b,6,7,7a,8,11,11a,11b,12,13,13a,13b-octadecahydro-1H-cyclopenta[a]chrysen-9-yl)benzoic acid], for which the EC50 was less than 100 nM.

On to `C=C(C)[C@@H]1CC[C@]2(NC(=O)N3CCCNCC3)CC[C@]3(C)[C@H](CC[C@@H]4[C@@]5(C)CC=C(c6ccc(C(=O)O)cc6)C(C)(C)[C@@H]5CC[C@]43C)[C@@H]12` [Example 55, 4-((1R,3aS,5aR,5bR,7aR,11aS,11bR,13aR,13bR)-3a-(1,4-diazepane-1-carboxamido)-5a,5b,8,8,11a-pentamethyl-1-(prop-1-en-2-yl)-2,3,3a,4,5,5a,5b,6,7,7a,8,11,11a,11b,12,13,13a,13b-octadecahydro-1H-cyclopenta[a]chrysen-9-yl)benzoic acid], for which the EC50 is less than 100 nM.

The same experiment, now with this note: Renilla, NL43, luciferase activity in cells infected for 4-5 days with NLRluc recombinants, serial dilutions of inhibitor; numeric values; read-out: EC50.
As to `C=C(C)[C@@H]1CC[C@]2(NC(=O)N(CCN)CCC(=O)O)CC[C@]3(C)[C@H](CC[C@@H]4[C@@]5(C)CC=C(c6ccc(C(=O)O)cc6)C(C)(C)[C@@H]5CC[C@]43C)[C@@H]12` [Example 43, 4-((1R,3aS,5aR,5bR,7aR,11aS,11bR,13aR,13bR)-3a-(3-(2-aminoethyl)-3-(2-carboxyethyl)ureido)-5a,5b,8,8,11a-pentamethyl-1-(prop-1-en-2-yl)-2,3,3a,4,5,5a,5b,6,7,7a,8,11,11a,11b,12,13,13a,13b-octadecahydro-1H-cyclopenta[a]chrysen-9-yl)benzoic acid], the EC50 stood at 30 nM.
